The text below walks through data of US20080280891A1, “Anti-cancer agents and uses thereof” (Locus Pharmaceuticals, Inc., priority 2006, published 2008).

Holding throughout (format): cell-based
Test [1] relates to MCF-7 breast cancer cells. Description: Cell cycle assay (Example 163), G2/M block in MCF-7 cells. The settings on record: Homo sapiens, MCF7, 24 h, flow cytometry (PI), Table 2. As for the experimental part:
(§1) MCF-7 breast cancer cells and Jurkat T-cell leukemic cells were grown (and maintained) in EMEM and RPMI media, respectively, containing 10% fetal calf serum.
Cells were allowed to adhere for 24 hrs. After adherence, cell culture media was changed to that containing 0.5% FCS. Thirty minutes post-media change, test compounds were added at a concentration of 1 μM. Twenty-fours after test agent addition, cells were analyzed for cell cycle status as described below.
(§2) Cell cycle status was analyzed by flow cytometry. Briefly, cells were collected and washed with FACs buffer (Pharmingen) and resuspended and fixed in 1 mL of 80% ethanol for 1 hr. Cells were washed with FACs buffer and resuspended in propidium iodide(PI)/RNase staining buffer (Pharmingen). PI is a fluorescent dye that labels nucleic acids such as DNA. The fluorescence within a cell (in the presence of PI) is proportional to the amount of DNA within a cell. The cell content of DNA is an indices of status in the cell cycle. […] Cells in the S phase have DNA content that lies between these extremes.
(§3) For testing of cell cycle effects of test agents the percentage of cells within the G1 and G2/M phase were measured.

Test [2] relates to Jurkat T-cell leukemic cells. Description: Cell cycle assay (Example 163), G2/M block in Jurkat cells. Particulars: Homo sapiens, Jurkat, 24 h, flow cytometry (PI), Table 2. The protocol:
as §1
Test agents were added a concentration of 0.1 μM. Twenty-fours after test agent addition, cells were analyzed for cell cycle status as described below.
as §2, §3
(Flow cytometry measures light scatter and fluorescence of single cells or particles in a stream.)

For test [3], the system named is NCI-H522 non small cell lung cancer cells. The test can be described thus: Cell cycle assay (Example 164), G2/M block in NCI-H522 cells. Particulars: Homo sapiens; for activation at 0.1 µM: 24 h, flow cytometry (PI), Table 4. As for the experimental part:
The adherent MCF-7 breast cancer cells and NCI-H522 non small cell lung cancer cells were grown and maintained in EMEM cell culture media containing 10% fetal calf serum.
Cells were allowed to adhere for 24 hrs. After adherence, cell culture media was changed to that containing 0.5% FCS. Thirty minutes post-media change, test compounds were added at a concentration of either 1.0 or 0.1 μM (as specified in the Tables). Twenty-four hours after test agent addition, cells were analyzed for cell cycle status as described below.
as §2, with “indicator” for “indices”
as §3

On to `O=C(c1cccnc1)c1cc(-c2cccc3[nH]ccc23)cc(N2CCCC2=O)c1` [1-[3-(1H-Indol-4-yl)-5-(pyridine-3-carbonyl)-phenyl]-pyrrolidin-2-one], for which the activation at 1 µM in test [1] is no less than 50%. Also, the activation at 0.1 µM in test [2] was less than 50%.
In test [1], `NC(=O)c1cc(Nc2cnccn2)cc(-c2cccc3[nH]ccc23)c1` [3-(1H-Indol-4-yl)-5-(pyrazin-2-ylamino)-benzamide] displayed an activation at 1 µM of no less than 50%. This molecule had an activation at 0.1 µM in test [2] of less than 50%.
The matching figures for `NC(=O)c1cc(Nc2cccnc2)cc(-c2cccc3[nH]ccc23)c1` [3-(1H-Indol-4-yl)-5-(pyridin-3-ylamino)-benzamide]: no less than 50% and no less than 50%.
`COC(=O)c1cc(Nc2cccnc2)cc(-c2cccc3[nH]ccc23)c1` [3-(1H-Indol-4-yl)-5-(pyridin-3-ylamino)-benzoic acid methyl ester] returned an activation at 1 µM in test [1] of no less than 50%. The activation at 0.1 µM in test [2] was no less than 50%.
`Oc1cc(Nc2ccccc2)cc(-c2cccc3[nH]ccc23)c1` [3-(1H-Indol-4-yl)-5-phenylamino-phenol] gave an activation at 1 µM in test [1] of no less than 50%. In test [2], this molecule yielded an activation at 0.1 µM of no less than 50%.
`Oc1cc(Nc2cccnc2)cc(-c2cccc3c2OCO3)c1` [3-Benzo[1,3]dioxol-4-yl-5-(pyridin-3-ylamino)-phenol] returned an activation at 1 µM in test [1] of no less than 50%. Besides, the activation at 0.1 µM in test [2] was no less than 50%.
Molecule `N#Cc1cc2c(-c3cc(O)cc(Nc4cccnc4)c3)cccc2[nH]1` [4-[3-Hydroxy-5-(pyridin-3-ylamino)-phenyl]-1H-indole-2-carbonitrile] came in with an activation at 1 µM in test [1] of less than 50%. In addition, the activation at 0.1 µM in test [2] is no less than 50%.
In the same order, the values of `N#Cc1ccc(Nc2cc(O)cc(-c3cccc4[nH]ccc34)c2)cn1` [5-[3-Hydroxy-5-(1H-indol-4-yl)-phenylamino]-pyridine-2-carbonitrile] are no less than 50% and no less than 50%.
The matching figures for `NC(=O)c1ccc(Nc2cc(O)cc(-c3cccc4[nH]ccc34)c2)cn1` [5-[3-Hydroxy-5-(1H-indol-4-yl)-phenylamino]-pyridine-2-carboxylic acid amide]: no less than 50% and no less than 50%.
In the same order, the values of `O=COCCOCc1ncccc1Nc1cc(O)cc(-c2cccc3[nH]ccc23)c1` [Formic acid 2-{3-[3-hydroxy-5-(1H-indol-4-yl)-phenylamino]-pyridin-2-ylmethoxy}-ethyl ester] are no less than 50% and less than 50%.
Regarding `COc1cc(C(=O)c2cc(NC(C)=O)cc(-c3cccc4[nH]ccc34)c2)ccn1` [N-[3-(1H-Indol-4-yl)-5-(2-methoxy-pyridine-4-carbonyl)-phenyl]-acetamide], in test [1], the activation at 1 µM is no less than 50%. Also, the activation at 0.1 µM in test [2] was no less than 50%.
In test [1], `CS(=O)(=O)Nc1cc(Nc2cccnc2)cc(-c2cccc3[nH]ccc23)c1` [N-[3-(1H-Indol-4-yl)-5-(pyridin-3-ylamino)-phenyl]-methanesulfonamide] registered an activation at 1 µM of no less than 50%. This molecule showed an activation at 0.1 µM in test [2] of less than 50%.
The matching figures for `CC(=O)Nc1cc(SCc2cccnc2)cc(-c2cccc3[nH]ccc23)c1` [N-[3-(1H-Indol-4-yl)-5-(pyridin-3-ylmethylsulfanyl)-phenyl]-acetamide]: no less than 50% and less than 50%.
In the same order, the values of `CCC(=O)Nc1cc(C(=O)c2cccnc2)cc(-c2cccc3[nH]ccc23)c1` [N-[3-(1H-Indol-4-yl)-5-(pyridine-3-carbonyl)-phenyl]-propionamide] are no less than 50% and less than 50%.
The matching figures for `CC(=O)Nc1cc(-c2cccc3[nH]ccc23)cc(S(=O)(=O)c2cccnc2)c1` [N-[3-(1H-Indol-4-yl)-5-(pyridine-3-sulfonyl)-phenyl]-acetamide]: no less than 50% and less than 50%.
For `CC(=O)Nc1cc(C(=O)c2ccncc2)cc(-c2cccc3[nH]ccc23)c1` [N-[3-(1H-Indol-4-yl)-5-(pyridine-4-carbonyl)-phenyl]-acetamide], the activation at 1 µM in test [1] was no less than 50%. The same molecule came in with an activation at 0.1 µM in test [2] of no less than 50%.
For `CS(=O)(=O)Nc1cc(C(=O)c2ccncc2)cc(-c2cccc3[nH]ccc23)c1` [N-[3-(1H-Indol-4-yl)-5-(pyridine-4-carbonyl)-phenyl]-methanesulfonamide], the activation at 1 µM in test [1] was no less than 50%. This molecule registered an activation at 0.1 µM in test [2] of no less than 50%.
In test [1], `CC(=O)Nc1cc(-c2nc3ncccc3o2)cc(-c2cccc3[nH]ccc23)c1` [N-[3-(1H-Indol-4-yl)-5-oxazolo[4,5-b]pyridin-2-yl-phenyl]-acetamide] had an activation at 1 µM of no less than 50%. This molecule also gave an activation at 0.1 µM in test [2] of less than 50%.
In the same order, the values of `Cc1cc(C(=O)c2cc(NS(C)(=O)=O)cc(-c3cccc4[nH]ccc34)c2)cc(Cl)n1` [N-[3-(2-Chloro-6-methyl-pyridine-4-carbonyl)-5-(1H-indol-4-yl)-phenyl]-methanesulfonamide] are no less than 50% and no less than 50%.
In test [3], `CC(=O)Nc1cc(-c2ccnc(Cl)c2)cc(-c2cccc3[nH]ccc23)c1` [N-[3-(2-Chloro-pyridin-4-yl)-5-(1H-indol-4-yl)-phenyl]-acetamide] displayed an activation at 0.1 µM of no less than 50%.
In test [1], `CC(=O)Nc1cc(C(=O)c2ccnc(Cl)c2)cc(-c2cccc3[nH]ccc23)c1` [N-[3-(2-Chloro-pyridine-4-carbonyl)-5-(1H-indol-4-yl)-phenyl]-acetamide] yielded an activation at 1 µM of no less than 50%. The activation at 0.1 µM in test [2] was no less than 50%.
`CS(=O)(=O)Nc1cc(C(=O)c2ccnc(Cl)c2)cc(-c2cccc3[nH]ccc23)c1` [N-[3-(2-Chloro-pyridine-4-carbonyl)-5-(1H-indol-4-yl)-phenyl]-methanesulfonamide] showed an activation at 1 µM in test [1] of no less than 50%. The molecule also yielded an activation at 0.1 µM in test [2] of no less than 50%.
In turn, `CS(=O)(=O)Nc1cc(C(=O)c2cccnc2)cc(-c2cccc3[nH]c(C#N)cc23)c1` [N-[3-(2-Cyano-1H-indol-4-yl)-5-(pyridine-3-carbonyl)-phenyl]-methanesulfonamide] registered an activation at 1 µM in test [1] of no less than 50%. Also, the activation at 0.1 µM in test [2] was no less than 50%.
`CC(=O)Nc1cc(-c2ccc(Cl)nc2)cc(-c2cccc3[nH]ccc23)c1` [N-[3-(6-Chloro-pyridin-3-yl)-5-(1H-indol-4-yl)-phenyl]-acetamide] yielded an activation at 0.1 µM in test [3] of no less than 50%.
Regarding `CCOc1ccc(-c2cc(NC(C)=O)cc(-c3cccc4[nH]ccc34)c2)cn1` [N-[3-(6-Ethoxy-pyridin-3-yl)-5-(1H-indol-4-yl)-phenyl]-acetamide], the activation at 0.1 µM in test [3] is less than 50%. The IC50 in test [3] (H522, footnotes * and ** of Table 4, read-out: IC50 (footnote mark in H522 G2/M Block)) lay within 100 to 1000 nM.
In test [1], `CC(=O)Nc1cc(Br)cc(C(=O)c2cccnc2)c1` [N-[3-Bromo-5-(pyridine-3-carbonyl)-phenyl]-acetamide] registered an activation at 1 µM of no less than 50%. The molecule also gave an activation at 0.1 µM in test [2] of no less than 50%.
Regarding `O=C(c1cccnc1)c1cc(-c2cccc3[nH]ccc23)ccc1O` [[2-Hydroxy-5-(1H-indol-4-yl)-phenyl]-pyridin-3-yl-methanone], the activation at 1 µM in test [1] is no less than 50%. For the same molecule, the activation at 0.1 µM in test [2] was no less than 50%.
For `COC(=O)Nc1cc(Nc2cccnc2)cc(-c2cccc3[nH]ccc23)c1` [[3-(1H-Indol-4-yl)-5-(pyridin-3-ylamino)-phenyl]-carbamic acid methyl ester], the activation at 1 µM in test [1] was no less than 50%. The same molecule yielded an activation at 0.1 µM in test [2] of less than 50%.
The matching figures for `O=C(Nc1cc(C(=O)c2cccnc2)cc(-c2cccc3[nH]ccc23)c1)OCc1ccccc1` [[3-(1H-Indol-4-yl)-5-(pyridine-3-carbonyl)-phenyl]-carbamic acid benzyl ester]: no less than 50% and less than 50%.
In the same order, the values of `O=C(c1cccnc1)c1cc(O)cc(-n2ccc3cc(F)ccc32)c1` [[3-(5-Fluoro-indol-1-yl)-5-hydroxy-phenyl]-pyridin-3-yl-methanone] are no less than 50% and no less than 50%.
The matching figures for `COc1cc(C(=O)c2cc(N)cc(-c3cccc4[nH]ccc34)c2)ccn1` [[3-Amino-5-(1H-indol-4-yl)-phenyl]-(2-methoxy-pyridin-4-yl)-methanone]: no less than 50% and no less than 50%.
Regarding `COc1ccc(C(=O)c2cc(O)cc(-c3cccc4[nH]ccc34)c2)cn1` [[3-Hydroxy-5-(1H-Indol-4-yl)-phenyl]-(6-methoxy-pyridin-3-yl)-methanone], the activation at 1 µM in test [1] is no less than 50%. This molecule registered an activation at 0.1 µM in test [2] of no less than 50%.
